According to patent US20220071999A1, “DESIGN AND DISCOVERY OF BD OXIDASE INHIBITORS FOR THE TREATMENT OF MYCOBACTERIAL DISEASES” (UNIVERSITY OF NOTRE DAME DU LAC, priority 2018, published 2022):
Where two headings read alike, the source gives them in different places.

How the values were obtained:
[1] = tested on: Mycobacterium abscessus clinical specimens; test: checkerboard assay (MIC) against Mycobacterium abscessus clinical specimens; type: cell-based; details: for MIC: Mycobacteroides abscessus; for Activity (effect on MICs in combination): ND-11992 with ND-11598
Description: ND-11992 (bd oxidase inhibitor) and ND-11598 (cyt-bc1:aa3 inhibitor) were evaluated against various Mycobacterium abscessus clinical specimens in a checkerboard assay. Additive effects on MICs were observed when both drugs were used in combination. MIC values are given in μg/mL.

[2] = tested on: Nontuberculous mycobacteria (NTM) clinical isolates of the Mycobacterium avium-intracellulare complex (MAIC); test: checkerboard assay (MIC) against NTM clinical isolates of the MAIC; type: cell-based; details: for MIC: Mycobacterium avium-intracellulare
Description: ND-11992 (bd oxidase inhibitor) and ND-11598 (cyt-bc1:aa3 inhibitor) were evaluated against various Nontuberculous mycobacteria (NTM) clinical isolates of the Mycobacterium avium-intracellulare complex (MAIC) in a checkerboard assay. Additive and synergistic effects on MICs were observed when both drugs were used in combination. MIC values are given in μg/mL.

M. tuberculosis = test: acute murine model of M. tuberculosis infection, alone and in combination; type: in vivo
Description: ND-11992 (bd oxidase inhibitor) and Q203 (cyt-bc1:aa3 inhibitor) were evaluated in an acute murine model of M. tuberculosis infection alone and in combination. ND-11992 (10 mg/kg PO)+Q203 (5 mg/kg PO) results in bactericidal efficacy with 1.5 log 10 CFU drop in bacteria when dosed orally for 5 days. […] Both compounds were bacteriostatic when dosed alone as single agents.

## Cc1ccn2c(C(=O)NCc3ccc(N4CCCN(c5ccc(C(F)(F)F)cc5)CC4)c(F)c3)c(C)nc2c1 [ND-11598]
[1]; M. abscessus Clinical Isolate #8, read-out: MIC ND-11598 alone
  MIC: > 10 µg/mL
[1]; M. abscessus Clinical Isolate #8, with 5 μg/ml ND 11992, read-out: ND-11598 MIC with 5 μg/ml ND 11992
  MIC: 5 µg/mL
[1]; M. abscessus Clinical Isolate #38, read-out: MIC ND-11598 alone
  MIC: > 10 µg/mL
[1]; M. abscessus Clinical Isolate #38, with 5 μg/ml ND 11992, read-out: ND-11598 MIC with 5 μg/ml ND 11992
  MIC: 5 µg/mL
[1]; M. abscessus Clinical Isolate #50, read-out: MIC ND-11598 alone
  MIC: > 10 µg/mL
[1]; M. abscessus Clinical Isolate #50, with 5 μg/ml ND 11992, read-out: ND-11598 MIC with 5 μg/ml ND 11992
  MIC: 10 µg/mL
[2]; NTM Clinical Isolate #25, read-out: MIC ND-11598 alone
  MIC: 0.25 µg/mL
[2]; NTM Clinical Isolate #25, with 0.5 μg/ml ND 11992, read-out: ND-11598 MIC with 0.5 μg/ml ND 11992
  MIC: 0.0156 µg/mL
[2]; NTM Clinical Isolate #50, read-out: MIC ND-11598 alone
  MIC: 1 µg/mL
[2]; NTM Clinical Isolate #50, with 0.5 μg/ml ND 11992, read-out: ND-11598 MIC with 0.5 μg/ml ND 11992
  MIC: 0.0156 µg/mL
[2]; NTM MAIC A5 (serotype 4), read-out: MIC ND-11598 alone
  MIC: 1 µg/mL
[2]; NTM MAIC A5 (serotype 4), with 0.5 μg/ml ND 11992, read-out: ND-11598 MIC with 0.5 μg/ml ND 11992
  MIC: 0.25 µg/mL
[2]; NTM MAIC Serovar #4, read-out: MIC ND-11598 alone
  MIC: > 10 µg/mL
[2]; NTM MAIC Serovar #4, with 0.5 μg/ml ND 11992, read-out: ND-11598 MIC with 0.5 μg/ml ND 11992
  MIC: 0.25 µg/mL
[2]; NTM MAIC Serovar #5, read-out: MIC ND-11598 alone
  MIC: > 10 µg/mL
[2]; NTM MAIC Serovar #5, with 0.5 μg/ml ND 11992, read-out: ND-11598 MIC with 0.5 μg/ml ND 11992
  MIC: 1 µg/mL
[2]; NTM MAIC Serovar #6, read-out: MIC ND-11598 alone
  MIC: 0.0156 µg/mL
[2]; NTM MAIC Serovar #6, with ND-11992 at 1 (column head: 0.5 μg/ml), read-out: ND-11598 MIC with ND 11992
  MIC: 0.0078 µg/mL
[2]; NTM MAIC Serovar #10, read-out: MIC ND-11598 alone
  MIC: 10 µg/mL
[2]; NTM MAIC Serovar #10, with 0.5 μg/ml ND 11992, read-out: ND-11598 MIC with 0.5 μg/ml ND 11992
  MIC: 0.25 µg/mL

## FC(F)(F)c1ccc(Oc2ccc(Nc3ncnc4ccccc34)cc2)cc1 [ND-11992]
[1]; M. abscessus Clinical Isolate #8, with 5 μg/ml of ND-11598, read-out: ND-11992 MIC with 5 μg/ml of ND-11598
  MIC: 5 µg/mL
[1]; M. abscessus Clinical Isolate #38, with 5 μg/ml of ND-11598, read-out: ND-11992 MIC with 5 μg/ml of ND-11598
  MIC: 5 µg/mL
[1]; M. abscessus Clinical Isolate #50, with 5 μg/ml of ND-11598, read-out: ND-11992 MIC with 5 μg/ml of ND-11598
  MIC: 10 µg/mL
[1]; M. abscessus Clinical Isolate #8
  Activity (effect on MICs in combination): Additive
[1]; M. abscessus Clinical Isolate #38
  Activity (effect on MICs in combination): Additive
[1]; M. abscessus Clinical Isolate #50
  Activity (effect on MICs in combination): Additive
M. tuberculosis; 10 mg/kg of ND-11992 alone
  CFU drop: no CFU drop
M. tuberculosis; combination ND-11992 10 mg/kg PO + Q203 5 mg/kg PO, 5 days
  type of efficacy (bactericidal/bacteriostatic): bactericidal
M. tuberculosis; combination ND-11992 10 mg/kg PO + Q203 5 mg/kg PO, dosed orally for 5 days
  CFU drop in bacteria: 1.5 log 10 CFU
M. tuberculosis; dosed alone as single agents
  type of efficacy (bactericidal/bacteriostatic): bacteriostatic
[2]; NTM Clinical Isolate #25, ND-11598 was only 0.125 μg/ml (column head: 0.5 μg/ml), read-out: ND-11992 MIC with ND-11598
  MIC: 0.0625 µg/mL
[2]; NTM Clinical Isolate #50, with 0.5 μg/ml of ND-11598, read-out: ND-11992 MIC with 0.5 μg/ml of ND-11598
  MIC: 0.125 µg/mL
[2]; NTM MAIC A5 (serotype 4), with 0.5 μg/ml of ND-11598, read-out: ND-11992 MIC with 0.5 μg/ml of ND-11598
  MIC: 0.25 µg/mL
[2]; NTM MAIC Serovar #4, with 0.5 μg/ml of ND-11598, read-out: ND-11992 MIC with 0.5 μg/ml of ND-11598
  MIC: 0.5 µg/mL
[2]; NTM MAIC Serovar #5, with 0.5 μg/ml of ND-11598, read-out: ND-11992 MIC with 0.5 μg/ml of ND-11598
  MIC: 1 µg/mL
[2]; NTM MAIC Serovar #10, with 0.5 μg/ml of ND-11598, read-out: ND-11992 MIC with 0.5 μg/ml of ND-11598
  MIC: 0.5 µg/mL
[2]; ND-11992 with ND-11598, NTM MAIC Serovar #6
  Activity (effect on MICs in combination): Additive

## CCc1nc2ccc(Cl)cn2c1C(=O)NCc1ccc(N2CCC(c3ccc(OC(F)(F)F)cc3)CC2)cc1 [Q203]
M. tuberculosis; dosed alone as single agents
  type of efficacy (bactericidal/bacteriostatic): bacteriostatic
